≈ marks a conversion by molar mass, not a printed value.
Experiments:
[1] = system: doxorubicin-resistant-MCF7 (R-MCF7) cells; set-up: method as in PMID 20564500; conditions: doxorubicin-resistant MCF7, 48 h of incubation; cited from earlier work
[2] = system: MCF7 cells; set-up: method as in PMID 20564500; conditions: 48 h of incubation; cited from earlier work
[3] = system: NCI-H929 myeloma cell line; experiment: Cytotoxicity, flow cytometry (AnnexinV/propidium iodide negativity), NCI-H929; assay type: cell-based, human
Protocol: (§1) Induction of apoptosis was measured in myeloma cell lines NCI-H929, OPM-2, and U266 as well as in peripheral blood mononuclear cells (PBMCs) of healthy donors by flow cytometry using established protocols thereby staining the cells with AnnexinV-fluorescein isothiocyanate and propidium iodide. Bortezomib (Eubio, Vienna, Austria) was used as positive control. Cell lines were purchased from DSMZ (Braunschweig, Germany) and routinely fingerprinted and tested for mycoplasma negativity. All cells (cell lines and PBMC) were grown in RPMI-1640 medium (Life Technologies, Paisley, UK) supplemented with 10% fetal calf serum (FCS; PAA, Linz, Austria), L-glutamine 100 µg/mL, and penicillin-streptomycin 100 U/mL. PBMCs from healthy donors were used after obtaining written informed consent at the University Hospital Salzburg (ethics committee approval 415-E/1287/6-2011). Cells were subjected to Ficoll separation (Ficoll PaqueTM) and incubated in RPMI-1640 Media with supplements as above. In brief, 0.5 × 10^6 myeloma cells/mL or similar numbers of PMBCs were incubated for 24 h and 48 h with or without the tested compounds dissolved in dimethyl sulfoxide at different concentrations. At least three analyses in triplicates were performed for each cell line and a solvent control was always included. As a positive control, the proteasome inhibitor bortezomib (BTZ) was used at concentrations of 10 and 5 nM. The extent of non-apoptotic cells (AnnexinV/propidium iodide negativity) was calculated as percentage of viable cells in respect to the untreated control. Data are shown as mean percentage of viable cells and standard error of the mean (SEM) (error bars).

[4] = system: OPM-2 myeloma cell line; experiment: Cytotoxicity, flow cytometry (AnnexinV/propidium iodide negativity), OPM-2; assay type: cell-based, human
Protocol: as §1

[5] = system: U266 myeloma cell line; experiment: Cytotoxicity, flow cytometry (AnnexinV/propidium iodide negativity), U266; assay type: cell-based, human
Protocol: as §1

[6] = system: peripheral blood mononuclear cells (PBMCs) of healthy donors; experiment: Cytotoxicity, flow cytometry (AnnexinV/propidium iodide negativity), PBMC of healthy donors; assay type: cell-based, human
Protocol: as §1

[7] = system: GABA(A)-receptors; set-up: method as in PMID 21082802; conditions: cited from earlier work
[8] = system: normal human gingival fibroblasts (HGF); set-up: method as in PMID 11824572; conditions: cited from earlier work
[9] = system: human squamous cell carcinoma (HSC-2) cells; set-up: method as in PMID 11824572; conditions: cited from earlier work
[10] = 25 µM, 24 h, % of untreated control, mean ± SEM (Table 1)
[11] = 25 µM, 48 h, % of untreated control, mean ± SEM (Table 2)
[12] = 50 µM, 24 h, % of untreated control, mean ± SEM (Table 1)
[13] = 50 µM, 48 h, % of untreated control, mean ± SEM (Table 2)
[14] = 12.5 µM, 24 h, second round (Table 3)
[15] = 25 µM, 24 h, second round (Table 3)
[16] = 37.5 µM, 24 h, second round (Table 3)

For `CC(=O)OC(CC(C)C1C(=O)C(O)C2(C)C3CCC4C(C)(C)C(OC5OCC(O)C(O)C5O)CCC45CC35CCC12C)C1OC1(C)C` [Compound 2, 23-O-acetylshengmanol-3-O-β-D-xylopyranoside], the “IC50 R-MCF7” value [1] is given as 60 µg/mL (≈ 90.5 µM), the “IC50 MCF7” value [2] is given as 39 µg/mL (≈ 58.8 µM) and the “MM Cells % Alive NCI-H929” value [3, 10] is given as 87.7 ± 4.9%. The “MM Cells % Alive NCI-H929” value [3, 11] was 63.9 ± 10.6%, the “MM Cells % Alive NCI-H929” value [3, 12] was 27.9 ± 12.2% and the “MM Cells % Alive NCI-H929” value [3, 13] was 17.4 ± 7.3%. For the same molecule, the “MM Cells % Alive OPM-2” value [4, 10] was 86.2 ± 8.6%, the “MM Cells % Alive OPM-2” value [4, 11] was 84.6 ± 1.0% and the “MM Cells % Alive OPM-2” value [4, 12] was 71.0 ± 11.2%. The “MM Cells % Alive OPM-2” value [4, 13] was 51.7 ± 8.9%, the “MM Cells % Alive U266” value [5, 10] was 79.4 ± 20.2% and the “MM Cells % Alive U266” value [5, 11] was 90.2 ± 1.7%. The “MM Cells % Alive U266” value [5, 12] was 56.3 ± 21.4%, the “MM Cells % Alive U266” value [5, 13] was 62.1 ± 0.4% and the “PBMC % Alive” value [6, 10] was 94.7 ± 1.8%. The “PBMC % Alive” value [6, 11] was 92.7 ± 1.7%, the “PBMC % Alive” value [6, 12] was 84.0 ± 3.0% and the “PBMC % Alive” value [6, 13] was 76.1 ± 2.1%. The “effect on GABA(A)-receptors, factor by which it exceeds actein (1) and compound 3” value [7] was over 5.
For `COC(C)(C)C1OC23OC1CC(C)C2C1(C)CCC24CC25CCC(OC2OCC(O)C(O)C2O)C(C)(C)C5CCC4C1(C)C3O` [Compound 7, 25-O-methylcimigenol-3-O-α-L-arabinopyranoside], the “cytotoxic effects against HGF (in words)” value [8] is given as “moderate effects”, the “cytotoxic effects against HSC-2 cells (in words)” value [9] is given as “moderate effects” and the “MM Cells % Alive NCI-H929” value [3, 14] is given as 95.5 ± 1.8%. The “MM Cells % Alive NCI-H929” value [3, 15] was 34.3 ± 8.0%, the “MM Cells % Alive NCI-H929” value [3, 16] was 2.5 ± 1.3% and the IC50 ([3]; Homo sapiens, NCI-H929, 24 h, incubation for 24 h) was 14.7 µg/mL (≈ 23.2 µM). For the same molecule, the “MM Cells % Alive OPM-2” value [4, 14] was 99.8 ± 1.7%, the “MM Cells % Alive OPM-2” value [4, 15] was 88.0 ± 4.5% and the “MM Cells % Alive OPM-2” value [4, 16] was 31.3 ± 8.6%. For the same molecule, the IC50 ([4]; Homo sapiens, OPM-2, 24 h, incubation for 24 h) was 21.2 µg/mL (≈ 33.4 µM), the “MM Cells % Alive U266” value [5, 14] was 97.0 ± 3.5% and the “MM Cells % Alive U266” value [5, 15] was 51.3 ± 11.8%. For the same molecule, the “MM Cells % Alive U266” value [5, 16] was 5.3 ± 2.8%, the IC50 ([5]; Homo sapiens, U-266, 24 h, incubation for 24 h) was 16.2 µg/mL (≈ 25.5 µM) and the “IC50 U266” value ([5]; incubation for 24 h) was 16.1 µg/mL (≈ 25.4 µM). For the same molecule, the “PBMC % Alive” value [6, 14] was 105.3 ± 0.6%, the “PBMC % Alive” value [6, 15] was 81.0 ± 8.5% and the “PBMC % Alive” value [6, 16] was 25.0 ± 6.3%. For the same molecule, the IC50 ([6]; Homo sapiens, PBMC, 24 h, incubation for 24 h) was 19.9 µg/mL (≈ 31.3 µM).

Source: article PMC7070908, “Structure-Guided Identification of Black Cohosh (Actaea racemosa) Triterpenoids with In Vitro Activity against Multiple Myeloma” (Molecules, 2020)
